Patent US11773127B2, “Compounds and methods for treating bacterial infections” (Washington University, priority 2017, dated 2023)
Read-outs that look alike come from different tables or passages of the source.

Target: T1, FmlHLD (Escherichia coli, UniProt P77588)
T1 construct: 6xHis (C); made in house; host or cells: E. coli C600, periplasm, pTRC99a
Assay: biochemical
Assay type: binding, E. coli
Details: for PI100 (percent inhibition): galactoside at 100 μM, 100 µM; for inhibition at 10 µM: read-out: PI10 (percent inhibition), galactoside at 10 μM; for inhibition at 100 µM: read-out: PI100 (percent inhibition), galactoside at 100 μM
Protocol: Thereafter, wells were incubated with 200 μl blocking buffer (PBS+1% BSA) for 2 hours at 23° C., followed by incubation with 100 μl biotinylated FmlHLD diluted in blocking buffer to 20 μg/ml in the presence or absence of the tested compounds for 1 hr at 23° C. After washing 3× with PBS+0.05% TWEEN-20, 100 μl Streptavidin-HRP conjugate (BD Biosciences; 1:2000 dilution in blocking buffer) was added to each well for 1 hr at 23° C. After a final round of washing, plates were developed with 100 μl Tetramethylbenzidine (TMB, BD Biosciences) substrate, quenched within 1-2 min with 50 μl […], and absorbance measured at 450 nm.
Select top hit compounds and few low-scoring analogs from the virtual screening, as well as synthetic galactosides, were tested in the ELISA-based competition assay for their ability to inhibit binding of FmlHLD to ds-BSM. The ELISA assay was performed using the protocol described in Example 18. […] All compounds were tested at 100 μM; a subset was tested at 10 μM; and the strongest subset was additionally tested at 1 μM. […] Percent inhibition (PI) values are reported as the mean with standard error of the mean for galactosides tested at 100 μM (PI100), 10 μM (PI10), and 1 μM (PI1) in the ELISA-based competition assay. […] The “thio” designation indicates a sulfur linkage between the sugar and the aglycone group, the “phospho” designation indicates a phosphate group attached the C6-hydroxyl group on the sugar, and the “uro” designation indicates galacturonide as the sugar.
The ELISA assay was performed using the protocol described in Example 18. All compounds were tested at 1 μM and a subset was additionally tested at 100 nM. Average percent inhibition (PI) values are reported for compounds tested at 1 μM (PI1) and 100 nM (PI0.1).
Briefly, 1 μg bovine submaxillary mucin (Sigma) in 100 uL PBS were incubated with Immulon 4HBX 96-well plates overnight prior to treatment with 1 mU Arthrobacter ureafaciens sialidase for 1 hour at 37° C. to remove terminal sialic acid sugars. Wells were then blocked with 200 μL PBS+1% BSA for 2 hours at room temperature. Biotinylated FmlH^LD was diluted to 20 μg/mL in blocking buffer and incubated in the presence or absence of compounds serially diluted 2× down eight rows for 1 hour at room temperature. Wells were washed three times with PBS 0.05% TWEEN-20 then incubated with 100 μL of streptavidin-HRP conjugate (BD Biosciences; 1:2,000 dilution in blocking buffer) for one hour. After three additional PBS+0.05% TWEEN washes, plates were developed with 100 μL of tetramethylbenzidine (BD Biosciences) substrate and quenched with 50 μL of 1 M H2SO4. Total bound portion concentration was measured by the absorbance at 450 nm. IC50s were determined using the Graphpad Prism software.
The compounds synthesized herein were tested in the ELISA-based competition assay for their ability to inhibit binding of FmlHLD to ds-BSM. The ELISA assay was performed using the protocol described in Example 18. Compounds were tested at […], 1 μM, and 100 nM. as indicated on the table. […] ND means the corresponding value was not determined for this summary (but may be available elsewhere in the Examples).

[1] = IC50, inhibition of FmlHLD binding to ds-BSM
[2] = mean with standard error of the mean
[3] = read-out: PI1 (percent inhibition), galactoside at 1 μM, mean with standard error of the mean

T1 sequence (P77588 25-182): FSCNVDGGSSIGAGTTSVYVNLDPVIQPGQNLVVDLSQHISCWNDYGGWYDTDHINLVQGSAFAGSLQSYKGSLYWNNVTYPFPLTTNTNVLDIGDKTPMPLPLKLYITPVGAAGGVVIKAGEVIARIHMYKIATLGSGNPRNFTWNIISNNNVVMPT

Row | Structure (SMILES) | IC50 [1] | PI100 (percent inhibition) [2] | inhibition at 10 µM [2] | inhibition at 100 µM [2] | further results
1 | CC(=O)N[C@H]1[C@H](Oc2ccccc2-c2cccc(OS(C)(=O)=O)c2)O[C@H](CO)[C@H](O)[C@@H]1O [AM2078, 2′-(((2S,3R,4R,5R,6R)-3-acetamido-4,5-dihydroxy-6-(hydroxymethyl)tetrahydro-2H-pyran-2-yl)oxy)-[1,1′-biphenyl]-3-yl methanesulfonate] |  |  |  |  | inhibitory potency against FmlH, in words (ELISA-based competition assay): equal or slightly reduced potency; IC50 (IC50 (μM), Table 5, Gal and GalNAc inhibition of FmlH): 0.89 µM; inhibition at 0.1 µM (read-out: % Inhibition at [μM] [0.1], compound at 0.1 μM (100 nM), inhibition of FmlHLD binding to ds-BSM): 2%; inhibition at 1 µM (read-out: % Inhibition at [μM] [1], compound at 1 μM, inhibition of FmlHLD binding to ds-BSM): 32.5%; inhibition at 0.1 µM (read-out: PI (0.1) (average percent inhibition), compound at 100 nM, Table 4): 2%; inhibition at 1 µM (read-out: PI(1) (average percent inhibition), compound at 1 μM, Table 4): 32.5%
2 | COc1cccc(O[C@@H]2O[C@H](CO)[C@H](O)[C@H](O)[C@H]2NC(C)=O)c1-c1cccc(NS(C)(=O)=O)c1 [AM2082] | 0.151 µM |  |  |  | 
3 | CC(=O)N[C@H]1[C@H](Oc2ccccc2-c2cccc(NC(=O)C(F)(F)F)c2)O[C@H](CO)[C@H](O)[C@@H]1O [AM2101] | 1.02 µM |  |  |  | 
4 | CC(=O)N[C@H]1[C@H](Oc2cccc(C#N)c2-c2cccc(NS(C)(=O)=O)c2)O[C@H](CO)[C@H](O)[C@@H]1O [AM2107] | 0.109 µM |  |  |  | 
5 | CC(=O)N[C@H]1[C@H](Oc2cccc(F)c2-c2cccc(NS(C)(=O)=O)c2)O[C@H](CO)[C@H](O)[C@@H]1O [AM2109] | 0.151 µM |  |  |  | 
6 | CC(=O)N[C@H]1[C@H](Oc2cccc(C)c2-c2cccc(NS(C)(=O)=O)c2)O[C@H](CO)[C@H](O)[C@@H]1O [AM2110] | 0.122 µM |  |  |  | 
7 | CC(=O)N[C@H]1[C@H](Oc2ccccc2-c2cccc(NS(=O)(=O)C(F)(F)F)c2)O[C@H](CO)[C@H](O)[C@@H]1O [AM2112] | 2.43 µM |  |  |  | 
8 | CC(=O)N[C@H]1[C@H](Oc2ccccc2-c2cc(NS(=O)(=O)C(F)(F)F)ccc2F)O[C@H](CO)[C@H](O)[C@@H]1O [AM2116] | 3.07 µM |  |  |  | 
9 | CC(=O)N[C@H]1[C@H](Oc2ccccc2-c2cc(C(=O)O)cc([N+](=O)[O-])c2)O[C@H](CO)[C@H](O)[C@@H]1O [AM2119] | 1.72 µM |  |  |  | 
10 | Cc1cccc(O[C@@H]2O[C@H](CO)[C@H](O)[C@H](O)[C@H]2NC(=O)C(F)(F)F)c1-c1cccc(NS(C)(=O)=O)c1 [AM2129] | 0.105 µM |  |  |  | 
11 | CC(=O)N[C@H]1[C@H](Oc2cccc(C(F)(F)F)c2-c2cccc(NS(C)(=O)=O)c2)O[C@H](CO)[C@H](O)[C@@H]1O [AM2134] | 0.085 µM |  |  |  | 
12 | CC(=O)N[C@H]1[C@H](Oc2cccc(C(=O)OCc3ccccc3)c2-c2cccc(NS(C)(=O)=O)c2)O[C@H](CO)[C@H](O)[C@@H]1O [AM2141] | 0.18 µM |  |  |  | 
13 | CC(=O)N[C@H]1[C@H](Oc2ccc3ccccc3c2-c2cccc(NS(C)(=O)=O)c2)O[C@H](CO)[C@H](O)[C@@H]1O [AM2144] | 0.18 µM |  |  |  | 
14 | CC(=O)N[C@H]1[C@H](Oc2cccc(C(=O)O)c2-c2cccc(NS(C)(=O)=O)c2)O[C@H](CO)[C@H](O)[C@@H]1O [AM2148] | 0.13 µM |  |  |  | 
15 | CC(=O)N[C@H]1[C@H](Oc2cccc(C)c2-c2cccc(NS(=O)(=O)C3CC3)c2)O[C@H](CO)[C@H](O)[C@@H]1O [AM2151] | 0.12 µM |  |  |  | 
16 | CC(=O)N[C@H]1[C@H](Oc2cccc(C)c2-c2cccc(NS(=O)(=O)N(C)C)c2)O[C@H](CO)[C@H](O)[C@@H]1O [AM2152] | 0.13 µM |  |  |  | 
17 | Cc1cccc(O[C@@H]2O[C@H](CO)[C@H](O)[C@H](O)[C@H]2NS(C)(=O)=O)c1-c1cccc(NS(C)(=O)=O)c1 [AM2186] | 3.5 µM |  |  |  | 

Row | Structure (SMILES) | IC50 [1] | PI100 (percent inhibition) [2] | inhibition at 10 µM [2] | inhibition at 100 µM [2] | further results
18 | O=[N+]([O-])c1cccc(-c2ccccc2O[C@@H]2O[C@H](CO)[C@H](O)[C@H](O)[C@H]2O)c1 [AM3049] | 15 µM |  |  |  | 
19 | OC[C@H]1O[C@@H](Oc2ccccc2)[C@H](O)[C@@H](O)[C@H]1O [Compound 1β, phenyl β-galactoside] |  | 76.9 ± 0.4% | 15.5 ± 4.2% | 77% | 
20 | Cc1ccccc1O[C@H]1O[C@H](CO)[C@H](O)[C@H](O)[C@H]1O [Compound 2α, 2-Methylphenyl α/β-D-Galactopyranoside] |  |  |  | 30 ± 5.4% | 
21 | Cc1ccccc1O[C@@H]1O[C@H](CO)[C@H](O)[C@H](O)[C@H]1O [Compound 2β, 2-Methylphenyl α/β-D-Galactopyranoside] |  | 87.3 ± 3.7% | 28.2 ± 1.8% | 87% | inhibition at 1 µM [3]: 1.8 ± 5.7%
22 | N#Cc1ccccc1O[C@H]1O[C@H](CO)[C@H](O)[C@H](O)[C@H]1O [Compound 3α, 2-cyanophenyl α/β-D-galactopyranoside] |  |  |  | 17.8 ± 6.3% | 
23 | N#Cc1ccccc1O[C@@H]1O[C@H](CO)[C@H](O)[C@H](O)[C@H]1O [Compound 3β, 2-cyanophenyl α/β-D-galactopyranoside] |  | 94.5 ± 0.3% | 30.4 ± 1.8% | 95% | inhibition at 1 µM [3]: 12.1 ± 6.3%
24 | OC[C@H]1O[C@@H](Oc2ccccc2Cl)[C@H](O)[C@@H](O)[C@H]1O [Compound 6β, 2-chlorophenyl β-D-galactopyranoside] |  | 90.5 ± 0.6% | 20.7 ± 5.5% | 90% | inhibition at 1 µM [3]: 8 ± 4%
25 | COc1cc(OC)cc(O[C@@H]2O[C@H](CO)[C@H](O)[C@H](O)[C@H]2O)c1 [Compound 7β, 3,5-dimethoxyphenyl β-D-galactopyranoside] |  | 76.4 ± 2.4% | 11.7 ± 2.7% | 76% | 
26 | Cc1ccc(O[C@@H]2O[C@H](CO)[C@H](O)[C@H](O)[C@H]2O)cc1 [Compound 8β, 4-methylphenyl β-D-galactopyranoside] |  | 85.8 ± 0.7% | 16.5 ± 3.3% | 86% | inhibition at 1 µM [3]: 4.6 ± 7.9%
27 | N#Cc1ccc(O[C@@H]2O[C@H](CO)[C@H](O)[C@H](O)[C@H]2O)cc1 [Compound 9β, 4-cyanophenyl β-D-galactopyranoside] |  | 85.7 ± 1.6% | 19.2 ± 4.8% | 86% | inhibition at 1 µM [3]: 9.5 ± 3.7%
28 | Nc1ccc(O[C@@H]2O[C@H](CO)[C@H](O)[C@H](O)[C@H]2O)cc1 [Compound 10β] |  | 65.1 ± 1.4% | 9.8 ± 3.9% | 65% | 
29 | Cc1cc(=O)oc2cc(O[C@@H]3O[C@H](CO)[C@H](O)[C@H](O)[C@H]3O)ccc12 [Compound 12β] |  | 85.3 ± 0.7% | 19.7 ± 4.2% | 85% | inhibition at 1 µM [3]: 8.7 ± 3.1%
30 | Cc1cc(=O)oc2c(F)c(O[C@@H]3O[C@H](CO)[C@H](O)[C@H](O)[C@H]3O)c(F)cc12 [Compound 13β] |  | 49.7 ± 4.5% | 0.8 ± 3.1% | 50% | 
31 | Cc1c(C)c2ccc(O[C@@H]3O[C@H](CO)[C@H](O)[C@H](O)[C@H]3O)cc2oc1=O [Compound 14β] |  | 89.2 ± 0.4% | 19.8 ± 3.8% | 89% | inhibition at 1 µM [3]: 10.2 ± 4.3%
32 | O=c1ccc2nc3ccc(O[C@@H]4O[C@H](CO)[C@H](O)[C@H](O)[C@H]4O)cc3oc-2c1 [Compound 15β, Resorufin galactoside] |  | 80.4 ± 6.6% | 24 ± 3.2% | 80% | 
33 | OC[C@H]1O[C@@H](Oc2c[nH]c3ccccc23)[C@H](O)[C@@H](O)[C@H]1O [Compound 16β] |  | 21.7 ± 2.4% |  | 22% | 
34 | OC[C@H]1O[C@@H](Oc2c[nH]c3cc(Cl)ccc23)[C@H](O)[C@@H](O)[C@H]1O [Compound 17β] |  | 41.2 ± 3.4% |  | 41% | 
